Converted amounts (≈) assume the structure as drawn.
What was measured:
in vitro = details: human, WI38 cells
Description: Selectivity index, ratio of IC50 for human WI38 cells to IC50 for Trypanosoma brucei brucei Lister 427 bloodstream form

[1] = Selectivity index, ratio of IC50 for human WI38 cells to IC50 for Leishmania mexicana mexicana MHOM/BZ/84/BEL46 promastigotes; assay type: toxicity, cell-based, WI-38; details: read-out: Ratio IC50
[2] = tested on: Trypanosoma brucei brucei; assay: Antitrypanosomal activity against Trypanosoma brucei brucei Lister 427 bloodstream form assessed as parasite LDH activity by three-fold serial dilution method; assay type: functional, organism-based
WI-38 = assay: Cytotoxicity against human WI38 cells by MTT assay; assay type: cell-based
[3] = Selectivity index, ratio of IC50 for human WI38 cells to IC50 for erythrocytic stage of chloroquine-sensitive Plasmodium falciparum 3D7; assay type: toxicity, cell-based, WI-38; details: read-out: Ratio IC50
Plasmodium falciparum = assay: Antiplasmodial activity against erythrocytic stage of chloroquine-sensitive Plasmodium falciparum 3D7 assessed as parasite LDH activity by three-fold serial dilution method; assay type: functional, organism-based
[4] = tested on: Leishmania mexicana mexicana; assay: Antileishmanial activity against Leishmania mexicana mexicana MHOM/BZ/84/BEL46 promastigotes assessed as parasite LDH activity by three-fold serial dilution method; assay type: functional, organism-based

SMILES | selectivity ratio (in vitro) | selectivity ratio [1] | IC50 [2] [µg/mL] | IC50 (WI-38) [µg/mL] | selectivity ratio [3] | IC50 (Plasmodium falciparum) [µg/mL] | IC50 [4] [µg/mL]
C=C[C@H]1CN2CC[C@H]1C[C@H]2[C@H](O)c1cc(CC[C@@H](C)[C@H]2CC[C@H]3[C@@H]4[C@H](OC(C)=O)C[C@@H]5C[C@H](OC(C)=O)CC[C@]5(C)[C@H]4CC[C@]23C)nc2ccccc12 | 4.3 | 0.45 | 0.41 (≈ 0.565 µM) | 1.77 (≈ 2.44 µM) | 8.4 | 0.21 (≈ 0.29 µM) | 3.91 (≈ 5.39 µM)
C=C[C@H]1CN2CC[C@H]1C[C@H]2[C@H](O)c1ccnc2ccccc12 [CINCHONIDINE] |  | 0.96 | 18.3 (≈ 62.1 µM) | > 20 | > 71 | 0.28 (≈ 0.951 µM) | 5.74 (≈ 19.5 µM)
C=C[C@H]1CN2CC[C@H]1C[C@H]2[C@@H](O)c1cc(CC[C@@H](C)[C@H]2CC[C@H]3[C@@H]4[C@H](OC(C)=O)C[C@@H]5C[C@H](OC(C)=O)CC[C@]5(C)[C@H]4CC[C@]23C)nc2ccccc12 | 4.5 | 0.47 | 0.43 (≈ 0.593 µM) | 1.93 (≈ 2.66 µM) | 10.2 | 0.19 (≈ 0.262 µM) | 4.11 (≈ 5.67 µM)
CC[C@@]1(O)C(=O)OCc2c1cc1n(c2=O)Cc2cc3ccccc3nc2-1 [CAMPTOTHECIN] |  |  |  | 0.4 (≈ 1.15 µM) |  |  | 
C=C[C@H]1CN2CC[C@H]1C[C@H]2[C@@H](O)c1cc(CC[C@@H](C)[C@H]2CC[C@H]3[C@@H]4CC[C@@H]5C[C@H](O)CC[C@]5(C)[C@H]4CC[C@]23C)nc2ccc(OC)cc12 | 3.3 | 0.64 | 0.79 (≈ 1.21 µM) | 2.59 (≈ 3.95 µM) | 3.8 | 0.68 (≈ 1.04 µM) | 4.05 (≈ 6.18 µM)
C=C[C@H]1CN2CC[C@H]1C[C@@H]2[C@@H](O)c1ccnc2ccc(OC)cc12 [QUINIDINE] | 1.3 |  | 8.42 (≈ 26 µM) | 11.3 (≈ 34.8 µM) | 179 | 0.06 (≈ 0.185 µM) | > 20
C=C[C@H]1CN2CC[C@H]1C[C@H]2[C@H](O)c1cc(CC[C@@H](C)[C@H]2CC[C@H]3[C@@H]4CC[C@@H]5C[C@H](OC(C)=O)CC[C@]5(C)[C@H]4CC[C@]23C)nc2ccc(OC)cc12 | 8 | 1.2 | 2.03 (≈ 2.91 µM) | 16.2 (≈ 23.2 µM) | 2.7 | 6.07 (≈ 8.71 µM) | 14 (≈ 20 µM)
C=C[C@H]1CN2CC[C@H]1C[C@H]2[C@@H](O)c1cc(CC[C@@H](C)[C@H]2CC[C@H]3[C@@H]4CC[C@@H]5C[C@H](OC(C)=O)CC[C@]5(C)[C@H]4CC[C@]23C)nc2ccc(OC)cc12 | 2.6 | 0.57 | 2.97 (≈ 4.26 µM) | 7.79 (≈ 11.2 µM) | 9.7 | 0.81 (≈ 1.16 µM) | 13.7 (≈ 19.6 µM)
C=C[C@H]1CN2CC[C@H]1C[C@H]2[C@H](O)c1cc(CC[C@@H](C)[C@H]2CC[C@H]3[C@@H]4[C@H](O)C[C@@H]5C[C@H](O)CC[C@]5(C)[C@H]4CC[C@]23C)nc2ccccc12 | 4.3 | 0.5 | 0.4 (≈ 0.624 µM) | 1.71 (≈ 2.67 µM) | 7.5 | 0.23 (≈ 0.359 µM) | 3.45 (≈ 5.38 µM)
C=C[C@H]1CN2CC[C@H]1C[C@H]2[C@H](O)c1cc(CC[C@@H](C)[C@H]2CC[C@H]3[C@@H]4CC[C@@H]5C[C@H](OC(C)=O)CC[C@]5(C)[C@H]4CC[C@]23C)nc2ccccc12 | 4.4 | 0.46 | 1.27 (≈ 1.9 µM) | 5.58 (≈ 8.37 µM) | 4.6 | 1.21 (≈ 1.81 µM) | 12.2 (≈ 18.3 µM)
C=C[C@H]1CN2CC[C@H]1C[C@H]2[C@@H](O)c1cc(CC[C@@H](C)[C@H]2CC[C@H]3[C@@H]4CC[C@@H]5C[C@H](O)CC[C@]5(C)[C@H]4CC[C@]23C)nc2ccccc12 | 1.3 | 0.97 | 3.01 (≈ 4.82 µM) | 3.97 (≈ 6.35 µM) | 4.6 | 0.86 (≈ 1.38 µM) | 4.08 (≈ 6.53 µM)
C[C@@H]1[C@H](O)[C@@H](C)/C=C/C=C/C=C/C=C/C=C/C=C/C=C/[C@H](O[C@@H]2O[C@H](C)[C@@H](O)[C@H](N)[C@@H]2O)C[C@@H]2O[C@](O)(C[C@@H](O)C[C@@H](O)[C@H](O)CC[C@@H](O)C[C@@H](O)CC(=O)O[C@H]1C)C[C@H](O)[C@H]2C(=O)O [AMPHOTERICIN B] |  |  |  |  |  |  | 0.1 (≈ 0.108 µM)
Cc1ccc(C(=O)Nc2ccc(S(=O)(=O)O)c3cc(S(=O)(=O)O)cc(S(=O)(=O)O)c23)cc1NC(=O)c1cccc(NC(=O)Nc2cccc(C(=O)Nc3cc(C(=O)Nc4ccc(S(=O)(=O)O)c5cc(S(=O)(=O)O)cc(S(=O)(=O)O)c45)ccc3C)c2)c1 [SURAMIN] |  |  | 0.11 (≈ 0.0848 µM) |  |  |  | 
C=C[C@H]1CN2CC[C@H]1C[C@H]2[C@H](O)c1ccnc2ccc(OC)cc12 [QUININE] | 1 |  | 6.87 (≈ 21.2 µM) | 6.56 (≈ 20.2 µM) | 32 | 0.2 (≈ 0.616 µM) | > 20
C=C[C@H]1CN2CC[C@H]1C[C@H]2[C@@H](O)c1cc(CC[C@@H](C)[C@H]2CC[C@H]3[C@@H]4[C@H](O)C[C@@H]5C[C@H](O)CC[C@]5(C)[C@H]4CC[C@]23C)nc2ccccc12 | 3.6 | 0.42 | 0.39 (≈ 0.608 µM) | 1.42 (≈ 2.22 µM) | 15.7 | 0.09 (≈ 0.14 µM) | 3.39 (≈ 5.29 µM)
C=C[C@H]1CN2CC[C@H]1C[C@H]2[C@H](O)c1cc(CC[C@@H](C)[C@H]2CC[C@H]3[C@@H]4[C@H](O)C[C@@H]5C[C@H](O)CC[C@]5(C)[C@H]4CC[C@]23C)nc2ccc(OC)cc12 | 11.1 | 0.98 | 0.41 (≈ 0.611 µM) | 4.57 (≈ 6.81 µM) | 15.5 | 0.3 (≈ 0.447 µM) | 4.67 (≈ 6.96 µM)
C=C[C@H]1CN2CC[C@H]1C[C@@H]2[C@@H](O)c1ccnc2ccccc12 [CINCHONINE] |  |  | > 20 | > 20 | > 222 | 0.09 (≈ 0.306 µM) | > 20
C=C[C@H]1CN2CC[C@H]1C[C@H]2[C@H](O)c1cc(CC[C@@H](C)[C@H]2CC[C@H]3[C@@H]4CC[C@@H]5C[C@H](O)CC[C@]5(C)[C@H]4CC[C@]23C)nc2ccc(OC)cc12 |  |  | 3.53 (≈ 5.39 µM) | > 20 |  | 4.24 (≈ 6.47 µM) | > 20
C=C[C@H]1CN2CC[C@H]1C[C@H]2[C@@H](O)c1cc(CC[C@@H](C)[C@H]2CC[C@H]3[C@@H]4[C@H](O)C[C@@H]5C[C@H](O)CC[C@]5(C)[C@H]4CC[C@]23C)nc2ccc(OC)cc12 | 5.3 | 0.51 | 0.37 (≈ 0.551 µM) | 1.95 (≈ 2.91 µM) | 14 | 0.14 (≈ 0.209 µM) | 3.86 (≈ 5.75 µM)
C=C[C@H]1CN2CC[C@H]1C[C@H]2[C@H](O)c1cc(CC[C@@H](C)[C@H]2CC[C@H]3[C@@H]4CC[C@@H]5C[C@H](O)CC[C@]5(C)[C@H]4CC[C@]23C)nc2ccccc12 | 4.3 | 0.72 | 2.16 (≈ 3.46 µM) | 9.28 (≈ 14.8 µM) | 8.7 | 1.07 (≈ 1.71 µM) | 12.8 (≈ 20.5 µM)
C=C[C@H]1CN2CC[C@H]1C[C@H]2[C@@H](O)c1cc(CC[C@@H](C)[C@H]2CC[C@H]3[C@@H]4[C@H](OC(C)=O)C[C@@H]5C[C@H](OC(C)=O)CC[C@]5(C)[C@H]4CC[C@]23C)nc2ccc(OC)cc12 | 7.1 | 0.75 | 0.44 (≈ 0.583 µM) | 3.1 (≈ 4.11 µM) | 8.1 | 0.38 (≈ 0.503 µM) | 4.15 (≈ 5.5 µM)
C=C[C@H]1CN2CC[C@H]1C[C@H]2[C@H](O)c1cc(CC[C@@H](C)[C@H]2CC[C@H]3[C@@H]4[C@H](OC(C)=O)C[C@@H]5C[C@H](OC(C)=O)CC[C@]5(C)[C@H]4CC[C@]23C)nc2ccc(OC)cc12 | 3.2 | 1.1 | 1.22 (≈ 1.62 µM) | 3.92 (≈ 5.19 µM) | 5.6 | 0.69 (≈ 0.914 µM) | 3.49 (≈ 4.62 µM)
C=C[C@H]1CN2CC[C@H]1C[C@H]2[C@@H](O)c1cc(CC[C@@H](C)[C@H]2CC[C@H]3[C@@H]4CC[C@@H]5C[C@H](OC(C)=O)CC[C@]5(C)[C@H]4CC[C@]23C)nc2ccccc12 | 5.6 | 0.58 | 1.26 (≈ 1.89 µM) | 7.02 (≈ 10.5 µM) | 3.1 | 2.26 (≈ 3.39 µM) | 12.1 (≈ 18.1 µM)

From ChEMBL document CHEMBL2413023, “Antiparasitic hybrids of Cinchona alkaloids and bile acids” (Eur J Med Chem, 2013)
